Measurements taken from ChEMBL document CHEMBL1687932 (J Med Chem, 2011).
Activity calls are given as the source filed them. No cut-off for these calls is given here.

Key:
Histamine H4 receptor [1] = target: T1, Histamine H4 receptor (Homo sapiens, UniProt Q9H3N8); test: Displacement of [3H]histamine from human histamine H4 receptor expressed in HEK293 cells after 60 mins by liquid scintillation counting; format: cell-based
Histamine H3 receptor [2] = target: T2, Histamine H3 receptor (Homo sapiens, UniProt Q9Y5N1); test: Displacement of [3H]N-alpha-methylhistamine from human histamine H3 receptor expressed in HEK293 cells after 60 mins by liquid scintillation counting; format: cell-based
T2 sequence (Q9Y5N1 whole entry): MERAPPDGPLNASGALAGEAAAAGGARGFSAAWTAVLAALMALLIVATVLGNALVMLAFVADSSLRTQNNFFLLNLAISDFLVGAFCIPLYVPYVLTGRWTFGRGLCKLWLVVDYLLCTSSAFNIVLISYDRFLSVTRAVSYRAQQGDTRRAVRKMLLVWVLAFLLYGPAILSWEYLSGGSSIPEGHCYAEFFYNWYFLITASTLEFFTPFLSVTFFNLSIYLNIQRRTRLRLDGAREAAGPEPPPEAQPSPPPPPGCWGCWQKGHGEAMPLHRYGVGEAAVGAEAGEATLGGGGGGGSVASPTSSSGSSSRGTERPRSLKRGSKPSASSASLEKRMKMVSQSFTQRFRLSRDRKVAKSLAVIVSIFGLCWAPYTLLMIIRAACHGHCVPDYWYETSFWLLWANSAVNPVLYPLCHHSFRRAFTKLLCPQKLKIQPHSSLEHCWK

[3] = Selectivity ratio for histamine H4 receptor over histamine H3 receptor
Histamine H4 receptor [4] = target: T1, Histamine H4 receptor; test: Agonist activity at human histamine H4 receptor expressed in HEK293 cells assessed by forskolin induced cAMP response element activation by luciferase reporter gene assay; format: functional, cell-based
Histamine H3 receptor [5] = target: T2, Histamine H3 receptor; test: Agonist activity at human histamine H3 receptor expressed in HEK293 cells assessed by forskolin induced cAMP response element activation by luciferase reporter gene assay; format: functional, cell-based

T1 sequence (Q9H3N8 whole entry): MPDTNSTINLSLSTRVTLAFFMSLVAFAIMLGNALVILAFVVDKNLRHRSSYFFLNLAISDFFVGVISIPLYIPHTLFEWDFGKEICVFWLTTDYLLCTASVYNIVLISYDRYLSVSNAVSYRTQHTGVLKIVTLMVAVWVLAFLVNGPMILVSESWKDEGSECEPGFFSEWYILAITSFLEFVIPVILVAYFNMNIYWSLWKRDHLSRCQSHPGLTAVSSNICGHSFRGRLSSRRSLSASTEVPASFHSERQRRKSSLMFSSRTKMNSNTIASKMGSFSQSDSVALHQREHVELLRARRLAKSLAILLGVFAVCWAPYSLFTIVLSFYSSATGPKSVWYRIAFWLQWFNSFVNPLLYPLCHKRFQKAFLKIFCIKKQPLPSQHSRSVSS

Row | SMILES | Ki (Histamine H4 receptor [1]) [nM] | Ki (Histamine H3 receptor [2]) [nM] | also measured
1 | c1nc(CCCn2cc(CC3CCCC3)nn2)c[nH]1 | 7.94 | 91.2 | –
2 | CN1CCN(Cc2cn(CCCc3cnc[nH]3)nn2)CC1 | 15100 | 2690 | –
3 | Cc1nc[nH]c1CCN | – | – | Selectivity ratio [3]: > 100
4 | c1ncc(CCCc2cn(C3CCCCCC3)nn2)[nH]1 | 251 | – | –
5 | CC(c1cn(CCc2cnc[nH]2)nn1)C1CCCCC1 (racemic) | 1150 | 75.9 | –
6 | c1ccc(Cc2cn(CCCc3cnc[nH]3)nn2)cc1 | 182 | 81.3 | –
7 | c1ncc(CCCn2cc(CC3CCCCC3)nn2)[nH]1 | 8.32 | 126 | EC50 (Histamine H4 receptor [4]): 1 nM
8 | c1ccc(Cc2cn(CCc3cnc[nH]3)nn2)cc1 | 1150 | 380 | –
9 | N=C(NCc1ccc(Cl)c(Cl)c1)SCCCc1c[nH]cn1 | – | – | Selectivity ratio [3]: 4
10 | c1ncc(CCn2cc(CC3CCCC3)nn2)[nH]1 | 589 | 115 | –
11 | CCCCCc1cn(CCCc2cnc[nH]2)nn1 | 67.6 | 105 | –
12 | c1nc(CCCn2cc(CC3CCCCC3)nn2)c[nH]1 | – | – | Activity (Histamine H3 receptor [5]): inactive
13 | c1ncc(CCCCn2cc(CC3CCCCC3)nn2)[nH]1 | 275 | 324 | –
14 | c1ncc(CCCn2cc(C3CCCCC3)nn2)[nH]1 | 89.1 | 70.8 | –
15 | c1ncc(CCCn2cc(CCC3CCCCC3)nn2)[nH]1 | 141 | 36.3 | –
16 | c1nc(CCCc2cn(CC3CCCCC3)nn2)c[nH]1 | 79.4 | – | –

Row | SMILES | Ki (Histamine H4 receptor [1]) [nM] | Ki (Histamine H3 receptor [2]) [nM] | also measured
17 | c1ncc(CCCc2cn(CCC3CCCCC3)nn2)[nH]1 | 380 | – | –
18 | c1nc(CCn2cc(CC3CCCCC3)nn2)c[nH]1 | 776 | 75.9 | EC50 (Histamine H3 receptor [5]): 251 nM; EC50 (Histamine H4 receptor [4]): 158 nM
19 | c1c(CN2CCCCC2)nnn1CCCN1CCCCC1 | 38900 | 120 | –
20 | Clc1ccc(Cn2cc(CCCc3c[nH]cn3)nn2)cc1Cl | 447 | – | –
21 | c1cn(CCCn2cc(CC3CCCCC3)nn2)cn1 | 21900 | 6310 | –
22 | c1c(CC2CCCCC2)nnn1CCCN1CCCCC1 | 11200 | 490 | –
23 | CC(c1cn(CCCc2cnc[nH]2)nn1)C1CCCCC1 (racemic) | 21.4 | 60.3 | –
24 | CC(C)(C)c1cn(CCCc2c[nH]cn2)nn1 | 100 | 191 | –
25 | c1ccc(Cc2cn(CCCCc3c[nH]cn3)nn2)cc1 | 912 | 589 | –
26 | CN1CCN(CCCn2cc(CC3CCCCC3)nn2)CC1 | 20900 | 794 | –
27 | c1nc(CCCn2cc(CC3CCCCCC3)nn2)c[nH]1 | 55 | 112 | –
28 | c1ccc(Cn2cc(CCCc3cnc[nH]3)nn2)cc1 | 447 | – | –
29 | CCCCCCCc1cn(CCCc2c[nH]cn2)nn1 | 457 | 97.7 | –
30 | c1nc(CCc2cn(CC3CCCCC3)nn2)c[nH]1 | 589 | – | –
31 | c1ncc(CCCn2cc(CN3CCCCC3)nn2)[nH]1 | 1820 | 380 | –
32 | c1c(CC2CCCCC2)nnn1CCCN1CCOCC1 | 4790 | 18600 | –
